{"source": "patent US8420605B2", "about": "“Hydrogel compositions” (The University of Strathclyde, priority 2005, dated 2013)", "key": {"Human dermal fibroblasts": {"tested_on": "Human dermal fibroblasts", "experiment": "Cell phenotype and size comparison in RGD/RGE-containing hydrogels (inverted optic microscope)", "type": "cell-based", "conditions": "after 24 hours, 3D culture, 1 mM/L RGD or RGE peptide with Fmoc-Phe-Phe-OH", "experimental": "Fmoc-SEQ. ID. NO. 1-OH (Fmoc-SEQ. ID. NO. 1) adhesion motifs were introduced to tackle the issue of un-spreaded cells in Fmoc-Phe-Phe-OH gels therefore to induce spreading and focal adhesion of dermal fibroblasts in these self-assembled peptide hydrogels. Fmoc-Phe-Phe-OH and Fmoc-Phe-Phe-OH+Fmoc-SEQ. ID. NO. 2-OH (Fmoc-SEQ. ID. NO. 2) combination were set as comparisons.\n0.0014 grams of Fmoc-SEQ. ID. NO. 1or Fmoc-SEQ. ID. NO. 2(1 mM/L in later hydrogels), were weighed and mixed with 0.0107 grams Fmoc-Phe-Phe-OH respectively into glass vials, and 0.0107 grams Fmoc-Phe-Phe-OH alone was weighed as well. The above peptide and peptide mixtures were sterilized for 30 minutes by an ultraviolet light exposure with bottles of distilled water, filtered NaOH (Sodium Hydroxide, 0.5 M/L), filtered HCl (Hydrochloric Acid, 0.5 M/L), and relevant apparatus (spatulas, pipettes, Vortex). 2 mL of the sterile distilled water was then added into each glass vial of Fmoc-Phe-Phe-OH, Fmoc-Phe-Phe-OH+Fmoc-SEQ. ID. NO. 1, and Fmoc-Phe-Phe-OH+Fmoc-SEQ. ID. NO. 2, and the mixtures were vortexed for a few seconds to create suspensions. […] The basic peptide solutions (pH around 10) were finally neutralized to pH 7 by dropwise addition of HCl and pH values were monitored by a pH meter with a micro-probe. […]"}, "[1]": {"experiment": "Preparation of self-assembled peptide hydrogels by pH adjustment (gel formation)", "type": "physicochemical", "experimental": "Fmoc peptides (from BACHEM Ltd) were weighed out into 4 ml glass vials. 2 ml purified water was added followed by sonication for 30-60 seconds. 0.5M NaOH solution was added in 50 μl droplets until a clear solution was formed. 0.1M HCl was added to the solution by stepwise addition of 50 μl followed by mixing using a vortex. pH values were estimated by transferring a spatula tip of hydrogel onto universal indicator paper.\nSelf-assembled scaffolds were prepared by first suspending the Fmoc-dipeptide in purified water. Upon increase of the pH by addition of concentrated NaOH (thus de-protonating the carboxylic acid group) to a value of >8, a clear solution was obtained. To this solution, concentrated hydrochloric acid was added drop wise until the pH of the solution became 7, at which point a clear, self-supporting gel was formed.\nTable 3 below identifies various peptide derivatives (incorporating an aromatic stacking ligand) and mixtures thereof that formed gels at a pH of 6-8 at the indicated concentrations: […]"}}, "note": "Peptide text beside a SMILES is read from it. * marks the point of attachment. Fmoc = O=C(OCC1c2ccccc2-c2ccccc21)*", "data": [{"smiles": "O=C(N[C@@H](Cc1ccccc1)C(=O)N[C@@H](Cc1ccccc1)C(=O)O)OCC1c2ccccc2-c2ccccc21", "note": "[Entry 1, Fmoc-Phe-Phe-OH] (Fmoc-Phe-Phe-OH)", "values": [{"measurement": "average cell size", "setting": "Human dermal fibroblasts", "result": "around 20 microns"}, {"measurement": "Gel?", "setting": "[1]; Component 1 10 mM/L, pH 7", "result": "✓"}, {"measurement": "Concentration", "setting": "[1]; Properties of self-assembled Fmoc-dipeptides (Table 1), concentration range of gel", "result": "2900 to 30000", "unit": "µM"}, {"measurement": "pH", "setting": "[1]; Properties of self-assembled Fmoc-dipeptides (Table 1), pH range of gel", "result": "4-8"}, {"measurement": "pH", "setting": "[1]; pH at which the gel formed at the indicated concentrations (Table 3)", "result": 7}]}]}
